The values below come from ChEMBL document CHEMBL1151682, “Insecticidal neolignans from Piper decurrens” (J Nat Prod, 1996).

Molecules are shown by their SMILES. Active and inactive are the calls of the source. The rule behind the calls is not given here.

The subject of the assay is Aedes atropalpus. The experiment in a line: Toxicity in sOchlerotatus atropalpus second-instar larvae at 10 ppm after 24 hrs. The format is functional, organism-based.
Regarding `C[C@H]1c2cc(C=O)ccc2O[C@@H]1c1ccc(O)cc1`, the result was inactive. As for `c1csc(-c2ccc(-c3cccs3)s2)c1`, the result was Active. Take `C/C=C/c1ccc2oc(-c3ccc(O)cc3)c(C)c2c1`: the outcome was Active.
